The source of these data is patent US11945787B2, “Substituted imidazoles for preventing and/or treating cell or tissue necrosis” (Ela Pharma Ltd, priority 2015, dated 2024).

Assay [1] deals with PC12 cells. Briefly: KCN-induced necrosis of PC12 cells, LDH release. The format is cell-based, rat. The following applies: for inhibition at 0.0001 µM / inhibition at 0.001 µM / inhibition at 0.01 µM / inhibition at 0.1 µM / inhibition at 1 µM: Rattus norvegicus, PC-12, 5 h, KCN, PC12, LDH release (Table 5); for % protection at indicated concentration 0.1 nM / inhibition at 0.0001 µM: 0.1 nM; for inhibition at 0.0001 µM: read-out: % protection at 0.1 nM; for % protection at indicated concentration 1 nM / inhibition at 0.001 µM: 1 nM; for inhibition at 0.001 µM: read-out: % protection at 1 nM; for % protection at indicated concentration 10 nM / inhibition at 0.01 µM: 10 nM; for inhibition at 0.01 µM: read-out: % protection At 10 nM; for inhibition at 0.1 µM: read-out: % protection at 0.1 μM; for inhibition at 1 µM: read-out: % protection at 1 μM. As for the experimental part:
The rat pheochromocytoma PC12 cell line was propagated in DMEM medium (Beit Haemek, Israel), supplemented with 5% heat-inactivated calf serum, 10% heat-inactivated horse serum, 2 mM L-glutamine, 100 U/ml penicillin and 100 μg/ml streptomycin. PC12 cells in logarithmic phase were seeded at a concentration of 1.2×10^5/well in 96-well plates and incubated overnight.
Thereafter, the cells were washed twice and maintained in RPMI-1640 (U-937cells) and DMEM (PC-12 cells) glucose-free medium, supplemented with 2 mM pyruvate and 10% dialyzed FCS for one hour. Then cells were treated with or without KCN (Merck, Germany) at the indicated concentrations for 7 hours (U-937 cells), or for 5 hours (PC12 cells).
Elastase inhibitors II (MeOSuc-AAPA-CMK) and elastase inhibitor III (MeOSuc-AAPV-CMK) were purchased from Calbiochem-Novabiochem, USA. Compound Gly-Phe diazomethylketone was purchased from MP Biomedicals, USA. All the compounds disclosed in Table 1 hereinabove were purchased from ChemDiv, San Diego, CA. The compounds were dissolved in DMSO and were administered 30 min before addition of the cell death inducer. The final concentration of DMSO, added to all samples, was 0.1%, which had no effect by itself siRNA and cell transfection
The amount of LDH released from lysed cells is a sensitive measure of cell death. Necrotic cell death was measured in 96-well plates using Promega CytoTox 96 LDH assay kit. LDH content from the cells lysed in 0.1% Triton X-100 for 10 min was used as an index of total LDH. The LDH released in culture medium was used as an index of necrotic cell death and the percentage from total LDH was calculated. The protection by the inhibitor was calculated based on comparing percentage of LDH release in the presence and in the absence of the inhibitor. The inhibitors were also added to totals, blanks and controls. Absorbance at 490 nm was measured by ELISA reader (BioTec).
These compounds were tested for their ability to inhibit necrosis induced by KCN in PC12 cells. The necrotic mode of cell death in this system was validated as previously described. PC12 cells were challenged with KCN as described above. The protective results of the compounds against KCN-induced necrosis assessed using LDH release method are shown below in Table 5. The IC50 values of these inhibitors is in the range of tens to single nanomolar.
Background: Release of lactate dehydrogenase indicates damage to the cell membrane.

The test system of assay [2] is elastase-like activity. Description: Elastase-like activity in lysates of KCN-treated U-937 cells (MAAPV substrate). The format is biochemical, human. The following applies: lysates after 10 mM KCN 30 min; data not shown.

In the case of `CC(=O)Oc1ccc2nc(-c3cccc(Br)c3)oc(=O)c2c1` [4334-1600, 2-(3-bromophenyl)-4-oxo-4H-benzo[d][1,3]oxazin-6-yl acetate], in assay [1] (KCN-induced necrosis (Table 2)), the “% protection at indicated concentration 0.1 nM” value came out at 28%, the “% protection at indicated concentration 1 nM” value was determined as 30%, the “% protection at indicated concentration 10 nM” value is 28% and the “% protection at indicated concentration 100 nM” value worked out at 70%. The “% protection at indicated concentration 1 μM” value in assay [1] (KCN-induced necrosis (Table 2)) was 74%. Further, in assay [1], the inhibition at 0.0001 µM amounted to 28%, the inhibition at 0.001 µM came to 30%, the inhibition at 0.01 µM was 28% and the inhibition at 0.1 µM worked out at 71%. Moreover, in assay [1], the inhibition at 1 µM was found to be 74%.
Regarding `Cc1[nH]c(=O)[nH]c(=O)c1S(=O)(=O)N1CCCCC1C` (stereo not shown) [E214-0380, 6-methyl-5-((2-methylpiperidin-1-yl)sulfonyl)pyrimidine-2,4(1H,3H)-dione], in assay [1], the inhibition at 0.0001 µM was 18%, the inhibition at 0.001 µM is 21%, the inhibition at 0.01 µM came to 39% and the inhibition at 0.1 µM was 51%. In assay [1], the inhibition at 1 µM is 83%.
For `O=S1(=O)N=C(NCCN2CCCC2)C(NCCN2CCCC2)=N1` [Z087-0195, 3,4-bis((2-(pyrrolidin-1-yl)ethyl)amino)-1,2,5-thiadiazole 1,1-dioxide] the same measures were 9%, 21%, 25%, 80% and 98.5%.
`CCOC(=O)[C@H]1O[C@@H]1C(=O)N[C@@H](CC(C)C)C(=O)NCCC(C)C` [E-64d]: the “effect on elastase-like proteolytic activity” value in assay [2] is “no effect”.
As to `CCn1c2ccccc2c2nnc(NCc3ccccn3)nc21` [E205-0066, 5-ethyl-N-(pyridin-2-ylmethyl)-5H-[1,2,4]triazino[5,6-b]indol-3-amine], in assay [1], the inhibition at 0.01 µM is 18%, the inhibition at 0.1 µM was 32% and the inhibition at 1 µM was 58%.
As for `COc1cc(C(=O)n2nc(C)cc2C)cc(OC)c1OC` [3346-3249, (3,5-dimethyl-1H-pyrazol-1-yl)(3,4,5-trimethoxyphenyl)methanone], the inhibition at 1 µM in assay [1] was found to be 52%.
Turning to `O=C(c1ccccc1Br)N1CCN=C1N1CCCCC1` [M059-0193, (2-bromophenyl)-[2-(1-piperidyl)-4,5-dihydroimidazol-1-yl] methanone], the “protection of cells at 10 μM” value in assay [1] (10 μM, KCN-induced necrosis (Table 2)) is on record as 10 μM confers protection 58% of cells.
Turning to `c1ccc(-c2noc(CC3CCCCC3)n2)nc1` [4953-1443, 5-(cyclohexylmethyl)-3-(pyridin-2-yl)-1,2,4-oxadiazole], the inhibition at 1 µM in assay [1] worked out at 51%.
On to `CNC(=O)c1n[nH]c2c1CCCCCC2` [Z632-6109, N-methyl-4,5,6,7,8,9-hexahydro-1H-cycloocta[c]pyrazole-3-carboxamide], for which, in assay [1], the inhibition at 0.0001 µM is 26%, the inhibition at 0.001 µM is 25%, the inhibition at 0.01 µM was 40% and the inhibition at 0.1 µM amounted to 70%. Also, the inhibition at 1 µM in assay [1] amounted to 81%.
As for `O=C(O)c1cccc(S(=O)(=O)N2CCCC2)c1` [3506-0172, 3-(pyrrolidin-1-ylsulfonyl)benzoic acid], in assay [1], the inhibition at 0.01 µM worked out at 18%, the inhibition at 0.1 µM turned out to be 19% and the inhibition at 1 µM is 52%.
With `Nc1ncc(S(=O)(=O)Nc2ccc(F)cc2F)cn1` [G830-0845, 2-amino-N-(2,4-difluorophenyl)pyrimidine-5-sulfonamide], the inhibition at 1 µM in assay [1] is 54%.
As for `CCOC(=O)CN1C(=O)c2ccccc2S1(=O)=O` [5149-0030, Ethyl-2,3-dihydro-3-oxo-1,2-benzisothiazole-2-acetate-1,1-dioxide], in assay [1] (KCN-induced necrosis (Table 2)), the “% protection at indicated concentration 0.1 nM” value is listed as 19%, the “% protection at indicated concentration 1 nM” value was 25%, the “% protection at indicated concentration 10 nM” value was found to be 35% and the “% protection at indicated concentration 100 nM” value was found to be 68%. In assay [1] (KCN-induced necrosis (Table 2)), the “% protection at indicated concentration 1 μM” value is reported as 80%. Moreover, in assay [1], the inhibition at 0.0001 µM was found to be 19%, the inhibition at 0.001 µM was found to be 25%, the inhibition at 0.01 µM was found to be 35% and the inhibition at 0.1 µM came to 68%. Besides, in assay [1], the inhibition at 1 µM worked out at 80%.
As to `CC(=O)Nc1nc(SCCC(=O)O)n[nH]1` [L150-1122, 3-((5-acetamido-1H-1,2,4-triazol-3-yl)thio)propanoic acid], in assay [1], the inhibition at 0.0001 µM turned out to be 22%, the inhibition at 0.001 µM was 25%, the inhibition at 0.01 µM turned out to be 30% and the inhibition at 0.1 µM was determined as 44%. The inhibition at 1 µM in assay [1] stood at 68%.
As for `O=c1oc(-c2ccco2)nc2sc3c(c12)CCCC3` [4789-3852, 2-(furan-2-yl)-5,6,7,8-tetrahydro-4H-benzo[4,5]thieno[2,3-d][1,3]oxazin-4-one], in assay [1], the inhibition at 0.0001 µM came out at 18%, the inhibition at 0.001 µM is 25%, the inhibition at 0.01 µM was 55% and the inhibition at 0.1 µM came to 61%. In addition, in assay [1], the inhibition at 1 µM is 81%.
For `Cn1c(-c2c(C(C)(C)C)oc3cc(OC(=O)C(C)(C)C)ccc3c2=O)nc2ccccc21` [4356-0595, 2-(tert-butyl)-3-(1-methyl-1H-benzo[d]imidazol-2-yl)-4-oxo-4H-chromen-7-yl pivalate], in assay [1], the inhibition at 0.0001 µM is 4%, the inhibition at 0.001 µM amounted to 21%, the inhibition at 0.01 µM amounted to 36% and the inhibition at 0.1 µM turned out to be 57%. For the same molecule, the inhibition at 1 µM in assay [1] turned out to be 69%.
Turning to `CC(C)N1CCN(C(=O)CN2C(=O)C3CCCN3C(=O)c3cc(F)ccc32)CC1` (stereo not shown) [M284-0488, 7-fluoro-10-(2-(4-isopropylpiperazin-1-yl)-2-oxoethyl)-2,3-dihydro-1H-benzo[e]pyrrolo[1,2-a][1,4]diazepine-5,11(10H,11aH)-dione], in assay [1], the inhibition at 0.0001 µM turned out to be 35%, the inhibition at 0.001 µM is 51%, the inhibition at 0.01 µM was determined as 82% and the inhibition at 0.1 µM turned out to be 72%. For the same molecule, the inhibition at 1 µM in assay [1] came out at 80%.
Take `O=C(N1CCN(c2nnc3ccc(Cl)cn23)CC1)C1(c2ccccc2)CC1` [T404-2346, (4-(6-chloro-[1,2,4]triazolo[4,3-a]pyridin-3-yl)piperazin-1-yl)(1-phenylcyclopropyl)methanone]: in assay [1], the inhibition at 0.1 µM amounted to 42%.
In the case of `CC(C)C(=O)Nc1ccc(Oc2ccc(NC(=O)C(C)C)cc2)cc1` [Y200-4083, N,N'-(oxybis(4,1-phenylene))bis(2-methylpropanamide)], in assay [1] (KCN-induced necrosis (Table 2)), the “% protection at indicated concentration 0.1 nM” value is listed as 11%, the “% protection at indicated concentration 1 nM” value is on record as 25%, the “% protection at indicated concentration 10 nM” value is listed as 32% and the “% protection at indicated concentration 100 nM” value was 49%. Further, the “% protection at indicated concentration 1 μM” value in assay [1] (KCN-induced necrosis (Table 2)) stood at 74%.
Regarding `CN(C)c1ccc(Nc2nc(-c3ccc(Cl)cc3)cs2)cc1` [4112-3656, N1-(4-(4-chlorophenyl)thiazol-2-yl)-N4,N4-dimethylbenzene-1,4-diamine], in assay [1] (KCN-induced necrosis (Table 2)), the “% protection at indicated concentration 0.1 nM” value turned out to be 30%, the “% protection at indicated concentration 1 nM” value is 25%, the “% protection at indicated concentration 10 nM” value was determined as 55% and the “% protection at indicated concentration 100 nM” value turned out to be 73%. The “% protection at indicated concentration 1 μM” value in assay [1] (KCN-induced necrosis (Table 2)) was 77%. For the same molecule, in assay [1], the inhibition at 0.0001 µM was found to be 30%, the inhibition at 0.001 µM came out at 25%, the inhibition at 0.01 µM stood at 55% and the inhibition at 0.1 µM was found to be 73%. Also, the inhibition at 1 µM in assay [1] turned out to be 77%.
